Patent US20130296250A1, “METHOD FOR TREATMENT OF PSORIASIS” (priority 2011, published 2013)
The star is where a group is joined. Myristoyl = CCCCCCCCCCCCCC(=O)*

Assays:
C57BL/6J mouse [1] = assay: Macrophage infiltration in wound, Iba-1 staining; assay type: in vivo; conditions: daily treatment, five days post-wounding
Experimental: The effect of MPDY-1 on macrophage infiltration was also shown by Iba-1 staining. Iba-1 is a general marker for macrophages. […] As above, a two-cm longitudinal incision was done on the upper back of a C57BL/6J mouse. Following wounding, a sterile pad was sutured to the mouse's skin. Animals were treated daily with MPDY-1 (n=6). Five days post-wounding, when inflammatory phase reaches its peak, the mice were sacrificed, skin tissues were embedded in paraffin and immunohistochemical staining was performed utilizing anti-Iba-1 antibodies.

[2] = system: IL-17A activated keratinocytes; assay: Cytokine secretion in IL-17A activated keratinocytes; assay type: cell-based; conditions: peptide inhibitors, FIGS. 24 to 27
[3] = system: TNFα activated keratinocytes; assay: Cytokine secretion in TNFα activated keratinocytes; assay type: cell-based; conditions: peptide inhibitors, FIGS. 19 to 23
C57BL/6J mouse [4] = assay: Macrophage activation in wound, MAC-2 staining; assay type: in vivo; conditions: daily treatment, 5 days; 1, 10 and 100 micrograms per mL
Experimental: The effect of MPDY-1 on macrophage activation was also shown by MAC-2 staining. MAC-2 is a specific marker for activated macrophages. […] A two-cm longitudinal incision was done as described above. Animals were treated daily with DPBS^−/− (Control) or MPDY-1 in the specified concentrations (n=6). After 5 days immunohistochemical staining was performed utilizing anti-MAC-2 antibodies. Bar […]. (*p(control Vs. MPDY-1 10 μg)=0.0028).

[5] = system: Keratinocytes derived from newborn C57BL/6 mice skin; assay: Cytokine secretion in LPS activated keratinocytes, Luminex; assay type: cell-based; conditions: peptide inhibitors, FIGS. 19 to 23
Text: Resident skin cells and immunological cells (both resident and infiltrating cells) interact in the inflammatory psoriatic process by cell-cell interactions and cytokine secretion. Thus, HO/02/10 was examined for its direct effect on the secretion of pro-inflammatory, chemoattractant and immunological pathway related cytokines form both keratinocytes and immune cells such as macrophages and dendritic cells.
The results of FIGS. 17A and 17B show the effect of HO/02/10 on cytokine secretion in keratinocytes. Keratinocytes were derived from newborn C57BL/6 mice skin. The cells were incubated for 5 days in 24 wells plates. Cells were then treated with DPBS−/−, LPS (100 ng/ml), or HO/02/10 (1 μg/ml)+LPS ([…]). Medium containing secreted cytokines was collected after 48 hr and analyzed using a Luminex system.

| Substance | macrophage infiltration (Iba-1 positive cells per field) (C57BL/6J mouse [1]) | cytokine secretion from IL-17A activated keratinocytes [2] | cytokine secretion from TNFα activated keratinocytes [3] | activation of macrophages (MAC-2 positive cells per field) (C57BL/6J mouse [4]) | cytokine secretion from LPS activated keratinocytes [5] |
| --- | --- | --- | --- | --- | --- |
| Myristoyl-Phe-Ala-Arg-Lys-Gly-Ala-Leu-Arg-Gln-OH (Myristoyl-FARKGALRQ-OH; SMILES CCCCCCCCCCCCCC(=O)N[C@@H](Cc1ccccc1)C(=O)N[C@@H](C)C(=O)N[C@@H](CCCNC(=N)N)C(=O)N[C@@H](CCCCN)C(=O)NCC(=O)N[C@@H](C)C(=O)N[C@@H](CC(C)C)C(=O)N[C@@H](CCCNC(=N)N)C(=O)N[C@@H](CCC(N)=O)C(=O)O) [MPDY-1] | dose dependent effect | decrease cytokine secretion | decrease cytokine secretion | significantly inhibited | decrease cytokine secretion |
| H-Phe-Ala-Arg-Lys-Gly-Ala-Leu-Arg-Gln-OH-acetate salt (H-FARKGALRQ-OH; also: acetate salt) [PDY-1] |  | decrease cytokine secretion | decrease cytokine secretion |  | decrease cytokine secretion |
| Myristoyl-Phe-Ala-Arg-Lys-Gly-Ala-Leu-OH (Myristoyl-FARKGAL-OH; SMILES CCCCCCCCCCCCCC(=O)N[C@@H](Cc1ccccc1)C(=O)N[C@@H](C)C(=O)N[C@@H](CCCNC(=N)N)C(=O)N[C@@H](CCCCN)C(=O)NCC(=O)N[C@@H](C)C(=O)N[C@@H](CC(C)C)C(=O)O) [MPDY-1 sh] |  | decrease cytokine secretion | decrease cytokine secretion |  | decrease cytokine secretion |
